In patent US11174253B2, “Compound and pharmaceutical composition containing the same” (ALPHALA CO., LTD., priority 2017, dated 2021):

Tests used:
Type in all cases: cell-based
[1] = system: hepatocellular carcinoma cell line Hep3B; assay: Growth inhibition of Hep3B cells, 48 hr treatment, Hoechst 33342 nucleus count (GE InCell 2200); conditions: Homo sapiens
Procedure, shortened: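 Compound exposure lasted 48 hr at 37° C, 5% CO2. Surviving nuclei were counted after Hoechst 33342 staining, and survival was expressed as the treated/non-treated cell number ratio, including the ratio at 10 μM compound.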

[2] = system: Hep3B hepatocellular carcinoma cell line; assay: MTS cell viability assay (NCI-60 methodology), GI50/LC50, Hep3B; conditions: Homo sapiens, 48 h, Hep3B cells, 2 days incubation with compound
Description: (§1) The number of treated cells was determined by GE InCell 2200 system, and treated cells were stained with Hoechst 33342 which can reveal the remained nucleus in culture plate. The proportion of survival cells then were calculated with the ratio of treated/non-treated cells. The growth inhibition/cytotoxic effect of selected compounds were evaluated by the following protocol of NCI-60 screening platform. The human tumor cell lines are plating on a 96 well plate in a fixed density 24 hr prior compound treatment. Compounds with multiple concentrations are then added into each well for further 48 hr incubation. Cell viability is assessed by MTS method and the potency of compound is represented by GI50 and LC50 calculated by MTS result.
(§2) The cell viability measurement is based on the NCI-60 screening methodology (Nat. Rev. Cancer 6, 813-823, 2006). Briefly, cells are inoculated into 96-well plates at the optimal plating density. After 24 h, one of the two plates for each cell line is processed to determine a time zero cell viability (Tz) by MTS assay (Promega). Compounds are added over a 2-fold serial dilution to provide a total five drug concentrations plus DMSO control. Plates are incubated for a further 2 days, then measured cell viability by MTS assay [control growth (C) and test growth in the presence of drug at the five concentration levels (Ti)]. Growth inhibition of 50% (GI50) is calculated from [(Ti−Tz)/(C−Tz)]×100=50, which is the drug concentration resulting in a 50% reduction of control cells during the drug incubation. The LC50 is calculated from [(Ti−Tz)/Tz]×100=−50, which is the drug concentration resulting in a 50% reduction at the end of the drug treatment as compared to that at the beginning.
(§3) Herein, Hep3B refers to hepatocellular carcinoma cell line, SW480 refers to colon adenocarcinoma cell line, and NCI-H460 refers to human lung cancer cell line.

[3] = system: SW480 colon adenocarcinoma cell line; assay: MTS cell viability assay (NCI-60 methodology), GI50/LC50, SW480; conditions: Homo sapiens, 48 h, SW480 cells, 2 days incubation with compound
Description: as §1, §2, §3

[4] = system: NCI-H460 human lung cancer cell line; assay: MTS cell viability assay (NCI-60 methodology), GI50/LC50, NCI-H460; conditions: 48 h, NCI-H460 cells, 2 days incubation with compound
Description: as §1, §2, §3

[5] = Table 5, ratio of number of tumor cells treated with 10 μM compound to non-treated cells
[6] = Table 6, ratio of number of tumor cells treated with 10 μM compound to non-treated cells

CCCCOc1ccc(-c2nc(NC(=O)c3ccc([N+](=O)[O-])s3)sc2Oc2ccccc2)cc1 [Compound 5-56, N-(4-(4-butoxyphenyl)-5-phenoxythiazol-2-yl)-5-nitrothiophene-2-carboxamide]
viability at 10 µM [1, 5]: 40% | GI50 [2]: 550 nM | LC50 [2]: 2310 nM | GI50 [3]: 1540 nM | LC50 (NCI-60 lethal concentration, 50% net cell loss vs time zero) [3]: 9.32 µM | GI50 [4]: 700 nM | LC50 (concentration giving 50% net cell loss versus time zero, NCI-60 definition) [4]: 1550 nM

CCCCOc1ccc(Oc2sc(NC(=O)c3ccc([N+](=O)[O-])s3)nc2-c2ccc(F)cc2)cc1 [Compound 5-66, N-(5-(4-butoxyphenoxy)-4-(4-fluorophenyl)thiazol-2-yl)-5-nitrothiophene-2-carboxamide]
viability at 10 µM [1, 5]: 43% | GI50 [2]: 520 nM | LC50 [2]: 760 nM | GI50 [3]: 950 nM | LC50 (NCI-60 lethal concentration, 50% net cell loss vs time zero) [3]: 2.81 µM | GI50 [4]: 390 nM | LC50 (concentration giving 50% net cell loss versus time zero, NCI-60 definition) [4]: 1130 nM

CCC(C)(C)c1ccc(Oc2sc(NC(=O)c3ccc([N+](=O)[O-])s3)nc2-c2ccc(C(F)(F)F)cc2)cc1 [Compound 5-71, 5-nitro-N-(5-(4-(tert-pentyl)phenoxy)-4-(4-(trifluoromethyl)phenyl)thiazol-2-yl)thiophene-2-carboxamide]
viability at 10 µM [1, 5]: 49% | GI50 [2]: 630 nM | LC50 [2]: 660 nM | GI50 [3]: 810 nM | LC50 (NCI-60 lethal concentration, 50% net cell loss vs time zero) [3]: 1.72 µM | GI50 [4]: 1530 nM | LC50 (concentration giving 50% net cell loss versus time zero, NCI-60 definition) [4]: 2400 nM

COc1ccc(-c2sc(NC(=O)c3ccc([N+](=O)[O-])s3)nc2-c2ccc(C(C)(C)C)cc2)cc1 [Compound 6-54, N-(4-(4-(tert-butyl)phenyl)-5-(4-methoxyphenyl)thiazol-2-yl)-5-nitrothiophene-2-carboxamide]
viability at 10 µM [1, 6]: 25% | GI50 [2]: 610 nM | LC50 [2]: 710 nM | GI50 [3]: 1380 nM | LC50 (NCI-60 lethal concentration, 50% net cell loss vs time zero) [3]: 2.35 µM | GI50 [4]: 440 nM | LC50 (concentration giving 50% net cell loss versus time zero, NCI-60 definition) [4]: 1590 nM

O=C(Nc1nc(-c2ccc(Br)cc2)c(Oc2ccccc2C(F)(F)F)s1)c1ccc([N+](=O)[O-])s1 [Compound 5-19, N-(4-(4-bromophenyl)-5-(2-(trifluoromethyl)phenoxy)thiazol-2-yl)-5-nitrothiophene-2-carboxamide]
viability at 10 µM [1, 5]: 62% | GI50 [2]: 1790 nM | LC50 [2]: 3910 nM | GI50 [3]: 1510 nM | LC50 (NCI-60 lethal concentration, 50% net cell loss vs time zero) [3]: 3.94 µM | GI50 [4]: 2880 nM

CC(C)(C)c1ccc(-c2nc(NC(=O)c3ccc([N+](=O)[O-])s3)sc2-c2cc(F)cc(F)c2)cc1 [Compound 6-38, N-(4-(4-(tert-butyl)phenyl)-5-(3,5-difluorophenyl)thiazol-2-yl)-5-nitrothiophene-2-carboxamide]
viability at 10 µM [1, 6]: 30% | GI50 [2]: 630 nM | LC50 [2]: 1610 nM | GI50 [3]: 740 nM | LC50 (NCI-60 lethal concentration, 50% net cell loss vs time zero) [3]: 4.06 µM | GI50 [4]: 700 nM | LC50 (concentration giving 50% net cell loss versus time zero, NCI-60 definition) [4]: 1650 nM

CC(C)(C)c1ccc(-c2nc(NC(=O)c3ccc([N+](=O)[O-])s3)sc2Oc2ccc(F)cc2)cc1 [Compound 5-20, N-(4-(4-(tert-butyl)phenyl)-5-(4-fluorophenoxy)thiazol-2-yl)-5-nitrothiophene-2-carboxamide]
viability at 10 µM [1, 5]: 62% | GI50 [2]: 790 nM | LC50 [2]: 2630 nM | GI50 [3]: 880 nM | LC50 (NCI-60 lethal concentration, 50% net cell loss vs time zero) [3]: 3.73 µM | GI50 [4]: 2760 nM | LC50 (concentration giving 50% net cell loss versus time zero, NCI-60 definition) [4]: 8340 nM

CCOc1ccc(-c2nc(NC(=O)c3ccc([N+](=O)[O-])s3)sc2Oc2cccc(C(F)(F)F)c2)cc1 [Compound 5-23, N-(4-(4-ethoxyphenyl)-5-(3-(trifluoromethyl)phenoxy)thiazol-2-yl)-5-nitrothiophene-2-carboxamide]
viability at 10 µM [1, 5]: 30% | GI50 [2]: 1220 nM | LC50 [2]: 3960 nM | GI50 [3]: 6420 nM | GI50 [4]: 2490 nM | LC50 (concentration giving 50% net cell loss versus time zero, NCI-60 definition) [4]: 4430 nM
